In PubChem BioAssay AID1259407 (Chemical Carcinogenesis Research Information System (CCRIS), 2018) one finds mutagenic call data, which are given here for 7 molecules.

Molecules are shown by their SMILES. The source made the active and inactive calls. The rule behind the calls is not given here.

The test system of the data set is CCRIS mutagenicity, Ames/micronucleus/aberration tests. The data set can be described thus: CCRIS mutagenicity studies.
Setting [1] is: Test System: AMES SALMONELLA TYPHIMURIUM, Strain/Indicator: TA98, Metabolic Activation: NONE, Method: STANDARD PLATE.
Setting [2] is: Test System: AMES SALMONELLA TYPHIMURIUM, Strain/Indicator: TA100, Metabolic Activation: NONE, Method: STANDARD PLATE.
The mark [3] stands for this setting: Test System: AMES SALMONELLA TYPHIMURIUM, Strain/Indicator: TA100, Metabolic Activation: RAT, LIVER, S-9, PHENOBARBITAL AND 5,6-BENZOFLAVONE, Method: PREINCUBATION

Regarding `CCC1CCC(CCC(=O)[O-])C1.CCC1CCC(CCC(=O)[O-])CC1.[Cu+2]` (configuration not stated), the mutagenic call runs as follows: (End Point: In vitro chromosomal aberrations, Test System: Chinese hamster ovary (CHO) cells, Metabolic Activation: None) “inactive; negative”; (End Point: In vitro chromosomal aberrations, Test System: Chinese hamster ovary (CHO) cells, Metabolic Activation: Rat, Liver, S-9, Aroclor) “inactive; negative”; (Test System: AMES SALMONELLA TYPHIMURIUM, Strain/Indicator: TA98, Metabolic Activation: HAMSTER, LIVER, S-9, AROCLOR 1254 (10%), Method: STANDARD PLATE) “inactive; negative”; under setting [1], “inactive; negative”; (Test System: AMES SALMONELLA TYPHIMURIUM, Strain/Indicator: TA98, Metabolic Activation: RAT, LIVER, S-9, AROCLOR 1254 (10%), Method: STANDARD PLATE) “inactive; negative”; (Test System: AMES SALMONELLA TYPHIMURIUM, Strain/Indicator: TA100, Metabolic Activation: HAMSTER, LIVER, S-9, AROCLOR 1254 (10%), Method: STANDARD PLATE) “inactive; negative”. Moreover, the mutagenic call under setting [2] was “inactive; negative”; the mutagenic call (Test System: AMES SALMONELLA TYPHIMURIUM, Strain/Indicator: TA100, Metabolic Activation: RAT, LIVER, S-9, AROCLOR 1254 (10%), Method: STANDARD PLATE) is “inactive; negative”; the mutagenic call (Test System: AMES SALMONELLA TYPHIMURIUM, Strain/Indicator: TA1535, Metabolic Activation: HAMSTER, LIVER, S-9, AROCLOR 1254 (10%), Method: STANDARD PLATE) is “inactive; negative”; the mutagenic call (Test System: AMES SALMONELLA TYPHIMURIUM, Strain/Indicator: TA1535, Metabolic Activation: NONE, Method: STANDARD PLATE) is “inactive; negative”; the mutagenic call (Test System: AMES SALMONELLA TYPHIMURIUM, Strain/Indicator: TA1535, Metabolic Activation: RAT, LIVER, S-9, AROCLOR 1254 (10%), Method: STANDARD PLATE) is “inactive; negative”; the mutagenic call (Test System: AMES SALMONELLA TYPHIMURIUM, Strain/Indicator: TA1537, Metabolic Activation: HAMSTER, LIVER, S-9, AROCLOR 1254 (10%), Method: STANDARD PLATE) was “inactive; negative”. For the same molecule, the mutagenic call reads like this: (Test System: AMES SALMONELLA TYPHIMURIUM, Strain/Indicator: TA1537, Metabolic Activation: NONE, Method: STANDARD PLATE) “inactive; negative”; (Test System: AMES SALMONELLA TYPHIMURIUM, Strain/Indicator: TA1537, Metabolic Activation: RAT, LIVER, S-9, AROCLOR 1254 (10%), Method: STANDARD PLATE) “inactive; negative”; (Test System: AMES SALMONELLA TYPHIMURIUM, Strain/Indicator: TA1538, Metabolic Activation: HAMSTER, LIVER, S-9, AROCLOR 1254 (10%), Method: STANDARD PLATE) “inactive; negative”; (Test System: AMES SALMONELLA TYPHIMURIUM, Strain/Indicator: TA1538, Metabolic Activation: NONE, Method: STANDARD PLATE) “inactive; negative”; (Test System: AMES SALMONELLA TYPHIMURIUM, Strain/Indicator: TA1538, Metabolic Activation: RAT, LIVER, S-9, AROCLOR 1254 (10%), Method: STANDARD PLATE) “inactive; negative”; (Test System: MOUSE LYMPHOMA, Strain/Indicator: L5178Y (TK+/TK-), Metabolic Activation: RAT, LIVER, S-9, AROCLOR 1254, Method: SUSPENSION/PLATE) “active; positive. reevaluation of results: positive”. Also, the mutagenic call was “active; positive” (Test System: Mouse lymphoma, Strain/Indicator: L5178Y TK+/-, Metabolic Activation: Mammalian, liver, S-9) and “inactive; negative” (Test System: Mouse lymphoma, Strain/Indicator: L5178Y TK+/-, Metabolic Activation: None).

In the case of `Cc1ccc2ccccc2n1`, the mutagenic call reads like this: (Test System: AMES SALMONELLA TYPHIMURIUM, Strain/Indicator: TA100, Metabolic Activation: RAT, LIVER, S-9, AROCLOR 1254, Method: STANDARD PLATE) “active; positive”; under setting [3], “active; positive”; (Test System: AMES SALMONELLA TYPHIMURIUM, Strain/Indicator: TA100, Metabolic Activation: RAT, LIVER, S-9, PHENOBARBITAL AND 5,6-NAPHTHOFLAVONE, Method: PREINCUBATION) “active; positive”; (Test System: AMES SALMONELLA TYPHIMURIUM, Strain/Indicator: TA100, Metabolic Activation: RAT, LIVER, S-9, Method: PREINCUBATION) “inactive; negative”; (Test System: UDS RODENT HEPATOCYTES, Strain/Indicator: THY INCORP (NON-S-PHASE), Metabolic Activation: NONE, Method: AUTORADIOGRAPHY) “inactive; negative”.

`CN(C)CCCNc1c2ccccc2nc2c(Cl)ccc([N+](=O)[O-])c12`: the mutagenic call was “active; positive” under setting [1] and “active; positive” under setting [2].

Take `[N-]=[N+]=NC[C@H]1O[C@H](O)[C@@H](O)[C@H](O)[C@@H]1O`: the mutagenic call under setting [1] was “inactive; negative” and the mutagenic call under setting [2] is “active; positive”.

On to `CC(Cl)C(=O)NCc1ccccc1` (configuration not stated), for which the mutagenic call was “inactive; negative” (Test System: AMES SALMONELLA TYPHIMURIUM, Strain/Indicator: TA100, Metabolic Activation: MOUSE, LIVER, S-9, AROCLOR 1254, Method: STANDARD PLATE) and “inactive; negative” under setting [2].

Turning to `[Cl-].[Cl-].[Cl-].[Cr+3].c1cnc2c(c1)ccc1cccnc12.c1cnc2c(c1)ccc1cccnc12`, the mutagenic call under setting [2] was “active; positive”.

Turning to `CC(=O)Oc1cc(C=O)cc2c1C(COC(N)=O)C1(OC(C)=O)ON2CC2C1N2C(C)=O` (configuration not stated), the mutagenic call reads like this: (Test System: AMES SALMONELLA TYPHIMURIUM, Strain/Indicator: TA98, Metabolic Activation: NONE, Method: PREINCUBATION) “inactive; negative”; (Test System: AMES SALMONELLA TYPHIMURIUM, Strain/Indicator: TA98, Metabolic Activation: RAT, LIVER, S-9, PHENOBARBITAL AND 5,6-BENZOFLAVONE, Method: PREINCUBATION) “inactive; negative”; (Test System: AMES SALMONELLA TYPHIMURIUM, Strain/Indicator: TA100, Metabolic Activation: NONE, Method: PREINCUBATION) “inactive; negative”; under setting [3], “inactive; negative”; (Test System: AMES SALMONELLA TYPHIMURIUM, Strain/Indicator: TA102, Metabolic Activation: NONE, Method: PREINCUBATION) “inactive; negative”; (Test System: AMES SALMONELLA TYPHIMURIUM, Strain/Indicator: TA102, Metabolic Activation: RAT, LIVER, S-9, PHENOBARBITAL AND 5,6-BENZOFLAVONE, Method: PREINCUBATION) “active; positive”. The mutagenic call reads like this: (Test System: AMES SALMONELLA TYPHIMURIUM, Strain/Indicator: TA1535, Metabolic Activation: NONE, Method: PREINCUBATION) “inactive; negative”; (Test System: AMES SALMONELLA TYPHIMURIUM, Strain/Indicator: TA1535, Metabolic Activation: RAT, LIVER, S-9, PHENOBARBITAL AND 5,6-BENZOFLAVONE, Method: PREINCUBATION) “inactive; negative”; (Test System: AMES SALMONELLA TYPHIMURIUM, Strain/Indicator: TA1537, Metabolic Activation: NONE, Method: PREINCUBATION) “inactive; negative”; (Test System: AMES SALMONELLA TYPHIMURIUM, Strain/Indicator: TA1537, Metabolic Activation: RAT, LIVER, S-9, PHENOBARBITAL AND 5,6-BENZOFLAVONE, Method: PREINCUBATION) “inactive; negative”.
